Key:
[1] = 100.5 kPa, Liquid
[2] = xn = mol fraction of the nth substance listed; conditions: 100.5 kPa, Liquid, x2 = 0

CC(=O)OCc1ccccc1 [benzyl ethanoate]
[1]
Conditions | mass density [kg/m3]
288.15 K | 1060.11
298.15 K | 1050.75
308.15 K | 1041.39
318.15 K | 1032.03

[1], Capillary tube (Ostwald / Ubbelohde) method
Conditions | viscosity [mPa·s]
288.15 K | 2.53
298.15 K | 2.056
308.15 K | 1.703
318.15 K | 1.432

CCC(=O)OCc1ccccc1 [benzyl propanoate]
[1]
Conditions | mass density [kg/m3]
288.15 K | 1036.86
298.15 K | 1027.6
308.15 K | 1018.38
318.15 K | 1009.15

[1], Capillary tube (Ostwald / Ubbelohde) method
Conditions | viscosity [mPa·s]
288.15 K | 2.55
298.15 K | 2.123
308.15 K | 1.787
318.15 K | 1.515

CCO [ethanol]
[1]
Conditions | mass density [kg/m3]
288.15 K | 793.6
298.15 K | 785
308.15 K | 776.31
318.15 K | 767.44

[1], Capillary tube (Ostwald / Ubbelohde) method
Conditions | viscosity [mPa·s]
288.15 K | 1.337
298.15 K | 1.105
308.15 K | 0.921
318.15 K | 0.771

CCO [ethanol] + CC(=O)OCc1ccccc1
[2], Capillary tube (Ostwald / Ubbelohde) method
Conditions | viscosity [mPa·s]
288.15 K | 1.337
298.15 K | 1.105
308.15 K | 0.921
318.15 K | 0.771

[2]
Conditions | mass density [kg/m3]
288.15 K | 793.6
298.15 K | 785
308.15 K | 776.31
318.15 K | 767.44

CCO [ethanol] + CCC(=O)OCc1ccccc1
[2], Capillary tube (Ostwald / Ubbelohde) method
Conditions | viscosity [mPa·s]
288.15 K | 1.337
298.15 K | 1.105
308.15 K | 0.921
318.15 K | 0.771

[2]
Conditions | mass density [kg/m3]
288.15 K | 793.6
298.15 K | 785
308.15 K | 776.31
318.15 K | 767.44

CCO [ethanol] + CCOC(=O)CC(C)=O
[2], Capillary tube (Ostwald / Ubbelohde) method
Conditions | viscosity [mPa·s]
288.15 K | 1.337
298.15 K | 1.105
308.15 K | 0.921
318.15 K | 0.771

[2]
Conditions | mass density [kg/m3]
288.15 K | 793.6
298.15 K | 785
308.15 K | 776.31
318.15 K | 767.44

CCO [ethanol] + CCOC(=O)CC(C)C
[2], Capillary tube (Ostwald / Ubbelohde) method
Conditions | viscosity [mPa·s]
288.15 K | 1.337
298.15 K | 1.105
308.15 K | 0.921
318.15 K | 0.771

[2]
Conditions | mass density [kg/m3]
288.15 K | 793.6
298.15 K | 785
308.15 K | 776.31
318.15 K | 767.44

CCO [ethanol] + CCOC(=O)c1ccccc1O
[2]
Conditions | mass density [kg/m3] | viscosity [mPa·s]
288.15 K | 793.6 | 1.337
298.15 K | 785 | 1.105
308.15 K | 776.31 | 0.921
318.15 K | 767.44 | 0.771

CCO [ethanol] + COC(=O)c1ccccc1
[2], Capillary tube (Ostwald / Ubbelohde) method
Conditions | viscosity [mPa·s]
288.15 K | 1.337
298.15 K | 1.105
308.15 K | 0.921
318.15 K | 0.771

[2]
Conditions | mass density [kg/m3]
288.15 K | 793.6
298.15 K | 785
308.15 K | 776.31
318.15 K | 767.44

CCOC(=O)c1ccccc1O [ethyl 2-hydroxybenzoate]
[1]
Conditions | mass density [kg/m3] | viscosity [mPa·s]
288.15 K | 1134.72 | 3.694
298.15 K | 1125 | 2.831
308.15 K | 1115.29 | 2.253
318.15 K | 1105.6 | 1.842

CCOC(=O)CC(C)C [ethyl 3-methylbutanoate]
[1]
Conditions | mass density [kg/m3]
288.15 K | 869.66
298.15 K | 859.78
308.15 K | 849.83
318.15 K | 839.81

[1], Capillary tube (Ostwald / Ubbelohde) method
Conditions | viscosity [mPa·s]
288.15 K | 0.853
298.15 K | 0.739
308.15 K | 0.642
318.15 K | 0.566

CCOC(=O)CC(C)=O [ethyl 3-oxobutanoate]
[1]
Conditions | mass density [kg/m3]
288.15 K | 1033.92
298.15 K | 1023.45
308.15 K | 1013
318.15 K | 1002.54

[1], Capillary tube (Ostwald / Ubbelohde) method
Conditions | viscosity [mPa·s]
288.15 K | 1.902
298.15 K | 1.581
308.15 K | 1.344
318.15 K | 1.144

COC(=O)c1ccccc1 [methyl benzoate]
[1]
Conditions | mass density [kg/m3]
288.15 K | 1093.23
298.15 K | 1083.92
308.15 K | 1074.34
318.15 K | 1064.62

[1], Capillary tube (Ostwald / Ubbelohde) method
Conditions | viscosity [mPa·s]
288.15 K | 2.297
298.15 K | 1.851
308.15 K | 1.531
318.15 K | 1.297
